Data: patent US8603527B2, “Pharmaceutical formulations of a substituted diaminopurine” (Signal Pharmaceuticals, LLC, priority 2010, dated 2013)
Like-named read-outs stand apart in the source and are kept apart here.

What was measured:
[1] = Relative bioavailability and food effect crossover study of formulated capsules in healthy male subjects; format: in vivo, human; details: Treatments A-D, single 100 mg dose
Text: Methods: This was an open-label, randomized, 4-treatment, 4-period, 4-sequence crossover study in healthy subjects to evaluate relative bioavailability and food effect on Compound I capsule formulations. The study consisted of a screening phase (Day −21 to Day −2) for subject eligibility, a baseline/admission phase (Day −1) for each period, treatment and assessment phase (Days 1 to Day 8) for each period, and a follow-up visit (Day 15±2 days from the last dose). During each period, subjects were domiciled at the study site from Day −1 through Day 2 (discharged on Day 3 after PK sampling and safety evaluations). Subjects then visited the study center on Days 4, 6, and 8 of each period for PK sampling and safety evaluations. Between periods, there was a minimum of 10 days of washout from the prior dose to the next dose (no more than 14 days).
Sixteen (16) male subjects were be randomized to one of the following 4 treatment sequences (4 subjects per sequence) on Day 1 of Period 1:
Subjects started fasting from the night of Day −1 for a minimum of 10 hours prior to dosing. On Day 1 of each period, subjects received their randomized treatment of Compound I at approximately 8 AM. […] Approximately 5 mL of blood sample was collected on days 1-8 for PK analysis. Subjects received standardized meals scheduled at approximately the same time during confinement in each period of the study.

[2] = Toxicokinetics in pregnant female rabbits; format: in vivo, rabbit; details: for Kp / AUC / Cmax: female, New Zealand White Hra:(NZW)SPF, rabbit; for Kp: fetal plasma / maternal plasma, oral, Gestation Day 19, calculated from individual ratios, read-out: Fetal:Maternal Plasma Ratio; for Kp / Doe plasma concentration / Fetus concentration (pooled fetal blood samples): rabbits; for AUC / Cmax: po, pregnant rabbits; for Doe plasma concentration / Fetus concentration (pooled fetal blood samples): 2 hours after dosing on Gestation Day 19
Text: Additionally, four groups of five animals/group served as toxicokinetic (TK) animals and received the vehicle or test article in the same manner and dose levels as the main study groups. All time-mated females arrived at the laboratory on GD 0, the day evidence of mating was observed.

[3] = Toxicokinetics in pregnant female rats; format: in vivo, rat; details: for concentration at 2 h / AUC / Cmax / Kp: female, rat; for concentration at 2 h / Kp: oral; for concentration at 2 h / Kp / Fetus concentration (pooled fetal blood samples): rats; for concentration at 2 h / Fetus concentration (pooled fetal blood samples): 2 hours after dosing on Gestation Day 17; for AUC / Cmax: pregnant rats; for Kp: fetal plasma / maternal plasma, Gestation Day 17, calculated from individual ratios, read-out: Fetal:Maternal Plasma Ratio
Procedure: Compound I was readily absorbed in pregnant rats following daily oral administration of Compound I for 11 days (GD 6-16). Exposures for Compound I increased in an approximately dose-proportional manner from 25 to 100 mg/kg/day.

[4] = plasma, 10 mg/kg/day, 10 mg/kg/d oral, Gestation Day 7
[5] = plasma, 10 mg/kg/day, 10 mg/kg/d oral, Gestation Day 18
[6] = plasma, 20 mg/kg/day, 20 mg/kg/d oral, Gestation Day 7
[7] = plasma, 40 mg/kg/day, 40 mg/kg/d oral, Gestation Day 7
[8] = plasma, 40 mg/kg/day, 40 mg/kg/d oral, Gestation Day 18
[9] = CD [Crl:CD(SD)], plasma, 25 mg/kg/day, 25 mg/kg/d oral, Gestation Day 16
[10] = CD [Crl:CD(SD)], plasma, 50 mg/kg/day, 50 mg/kg/d oral, Gestation Day 16
[11] = CD [Crl:CD(SD)], plasma, 100 mg/kg/day, 100 mg/kg/d oral, Gestation Day 16
[12] = Crl:CD(SD), plasma, 25 mg/kg/day, 25 mg/kg/d oral, Gestation Day 6
[13] = Crl:CD(SD), plasma, 50 mg/kg/day, 50 mg/kg/d oral, Gestation Day 6
[14] = Crl:CD(SD), plasma, 100 mg/kg/day, 100 mg/kg/d oral, Gestation Day 6

O[C@H]1CC[C@H](Nc2ncc3nc(Nc4c(F)cc(F)cc4F)n([C@H]4CCOC4)c3n2)CC1 [Compound I, 4-((9-((3S)-tetrahydro-3-furanyl)-8-((2,4,6-trifluorophenyl)amino)-9H-purin-2-yl)amino)-trans-cyclohexanol]
AUCt, Intra-Subject CV % [1]: 16.1%
AUC∞, Intra-Subject CV % [1]: 15.3%
Cmax, Intra-Subject CV % [1]: 36.8%
Kp ([2]; 10 mg/kg/day, 10 mg/kg/d): 0.1
Kp ([2]; 20 mg/kg/day, 20 mg/kg/d): 0.09
Kp ([2]; 40 mg/kg/day, 40 mg/kg/d): 0.24
AUC ([2]; in vivo, 20 mg/kg/day, 20 mg/kg/d oral, Gestation Day 18): 85000 ng·h/mL
AUC [2, 4]: 35200 ng·h/mL
Cmax [2, 4]: 6520 ng/mL
AUC [2, 5]: 39300 ng·h/mL
Cmax [2, 5]: 6730 ng/mL
AUC [2, 6]: 79100 ng·h/mL
Cmax [2, 6]: 12500 ng/mL
Cmax ([2]; plasma, 20 mg/kg/day, 20 mg/kg/d oral, Gestation Day 18): 13200 ng/mL
AUC [2, 7]: 152000 ng·h/mL
Cmax [2, 7]: 21200 ng/mL
AUC [2, 8]: 152000 ng·h/mL
Cmax [2, 8]: 21500 ng/mL
maternal AUC as fold of human AUC ([2]; rabbits at NOAEL 20 mg/kg/day vs human 100 mg BID): ~3.4 fold
maternal AUC as fold of human AUC ([2]; rabbits at NOAEL 20 mg/kg/day vs human 200 mg BID): ~1.6 fold
Doe plasma concentration ([2]; 10 mg/kg/d): 4916 ng/mL
Fetus concentration (pooled fetal blood samples) ([2]; 10 mg/kg/d): 465.7 ng/mL
Doe plasma concentration ([2]; 20 mg/kg/d): 9217 ng/mL
Fetus concentration (pooled fetal blood samples) ([2]; 20 mg/kg/d): 870.7 ng/mL
Doe plasma concentration ([2]; 40 mg/kg/d): 15594 ng/mL
Fetus concentration (pooled fetal blood samples) ([2]; 40 mg/kg/d): 3426 ng/mL
concentration at 2 h ([3]; CD [Crl:CD(SD)], fetal blood (pooled), 25 mg/kg/day, 25 mg/kg/d, read-out: Fetus concentration (pooled fetal blood samples)): 897 ng/mL
AUC [3, 9]: 19700 ng·h/mL
Cmax [3, 9]: 1930 ng/mL
AUC [3, 10]: 42300 ng·h/mL
Cmax [3, 10]: 4210 ng/mL
AUC [3, 11]: 96900 ng·h/mL
Cmax [3, 11]: 8130 ng/mL
concentration at 2 h ([3]; CD [Crl:CD(SD)], plasma, 25 mg/kg/day, 25 mg/kg/d, read-out: Dam plasma concentration): 1520 ng/mL
concentration at 2 h ([3]; CD [Crl:CD(SD)], plasma, 50 mg/kg/day, 50 mg/kg/d, read-out: Dam plasma concentration): 3410 ng/mL
concentration at 2 h ([3]; CD [Crl:CD(SD)], plasma, 100 mg/kg/day, 100 mg/kg/d, read-out: Dam plasma concentration): 6650 ng/mL
Kp ([3]; Crl:CD(SD), 25 mg/kg/day, 25 mg/kg/d): 0.59
Kp ([3]; Crl:CD(SD), 50 mg/kg/day, 50 mg/kg/d): 0.61
Kp ([3]; Crl:CD(SD), 100 mg/kg/day, 100 mg/kg/d): 0.61
AUC [3, 12]: 19500 ng·h/mL
Cmax [3, 12]: 2420 ng/mL
AUC [3, 13]: 49500 ng·h/mL
Cmax [3, 13]: 3920 ng/mL
AUC [3, 14]: 102000 ng·h/mL
Cmax [3, 14]: 6790 ng/mL
maternal AUC as fold of human AUC ([3]; rats at LOEL 25 mg/kg/day vs human 100 mg BID): ~0.8 fold
maternal AUC as fold of human AUC ([3]; rats at LOEL 25 mg/kg/day vs human 200 mg BID): ~0.4 fold
Fetus concentration (pooled fetal blood samples) ([3]; 50 mg/kg/d): 2115 ng/mL
Fetus concentration (pooled fetal blood samples) ([3]; 100 mg/kg/d): 4012 ng/mL
